Results from patent publication US20080226596A1, “Therapeutic compositions and methods useful in treating hepatitis” (priority 2006, published 2008).

Columns and labels:
HEY cells = assay: HEY ovarian cancer cell growth, MTT assay; format: cell-based, human; conditions: 100 μg/ml, day 6
Protocol: (§1) NIH3T3 (Yi, et al., Blood 85, 87 (1995)), WM9 (Forsberg, et al., Proc. Nat. Acad Sci. USA 90, 393 (1993)), DU145 (Mickey, et al., Cancer Res. 37, 4049 (1977)), LoVo (Drewinko, et al., Cancer Res. 36, 467 (1976)), HEY (Buick, et al., Cancer Res. 45, 3668 (1985)), U251 (Yoshida, et al., Cancer 50, 410 (1982)), A549 (Giard, et al., J. Natl. Cancer Inst. 51, 1417 (1973)) and SK-N-SH (Helson, et al., Cancer Res. 35, 2594 (1975)) cell lines have been described and were cultured in RPMI 1640 supplemented with 10% fetal calf serum (FCS). For measurement of sodium stibogluconate effects on cell growth in vitro, cells were cultured in the absence (−) or presence (+) of various amounts of sodium stibogluconate for 6 days with viable cells quantified by MTT assays (Mosmann, J. Immunol. Methods 65, 55 (1983)). Percentages of growth inhibition by sodium stibogluconate were calculated (.+−.x

SK-N-SH cells = assay: SK-N-SH neuroblastoma cell growth, MTT assay; format: cell-based, human; conditions: 100 μg/ml, day 6
Protocol: as §1

intracellular Flag-PRL-3 = molecular target: T1, intracellular Flag-PRL-3 (Homo sapiens, UniProt O75365); assay: Immunocomplex PTPase assay, Flag-PRL-3 NIH3T3 transfectants; format: cell-based, mouse; conditions: 5 min treatment
T1 construct: expressed in transfected cells; host or cells: NIH3T3 transfectants, pBabepuro vector
Protocol: Immunocomplex PTPase assays were performed to assess the effects of sodium stibogluconate on intracellular PTPases. Cells were untreated or treated with sodium stibogluconate for 5 minutes, washed with fresh medium and then lysed in cold lysis buffer (50 mM Tris, pH 7.4; 150 mM NaCl; 1% NP40; 2 mM PMSF; 20, g/ml of Aprotinin). The lysates were incubated with an anti-Flag antibody in immunoprecipitation assays. The immunocomplexes were collected with protein G sepharose beads (Pharmacia) and washed in cold lysis buffer for 4 times. […] 100 µL of malachite green solution (UBI) was added to each reaction prior to measurement of OD660 to quantify the amounts of free phosphate cleaved by the PTPases from the peptide substrate (Pathak et al., J. Imumol. 167, 3391 (2001)). The remaining 10% contents of individual samples were analyzed by SDS-PAGE/Western blotting to quantify the relative amounts of the phosphatase proteins. […]
The effects of sodium stibogluconate on intracellular PTPases were assessed using NIH3T3 or WM9 transfectants. […]

PRL-3 = molecular target: T2, PRL-3 (Homo sapiens, UniProt O75365); assay: In vitro PTPase assay, recombinant PRL-3; format: biochemical; conditions: 10 μg/ml, pre-incubation 30 or 60 minutes
T2 construct: GST (N); made in house; host or cells: DHSa (DH5a) bacteria
Excerpt: Sodium stibogluconate, suramin, sodium orthovanadate and GST fusion protein of SHP-1 have been described previously (Pathak et al., J. Imumol. 167, 3391 (2001)). Meglumine antimonate was obtained from Aventis. cDNAs of human PRL-1, PRL-2 and PRL-3 coding region were derived by RT-PCR from H9 cells (Safai, et al., Lancet 1, 1438 (1984)) and inserted in frame into the pGEX vector. cDNA of PRL-1R86 was generated by recombinant DNA technique using PRL-1 cDNA as template following established procedures (Jiao, et al., Mol. Cell. Biol. 16, 6985 (1996)). […]
In vitro PTPase assays were used to determine the effects of compounds on recombinant PTPases, following established procedures using a synthetic phosphotyrosine peptide or DiFMUP as the substrate (Pathak et al., J. Imumol. 167, 3391 (2001)). […] PTPase activity of individual reactions was measured by adding 100 µL of malachite green solution (UBI) and then quantifying the amounts of free phosphate cleaved by the PTPase from the peptide substrate by spectrometry (OD660 nm). […] Relative PTPase activities were calculated based on the formula: (PTPase activity in the presence of an inhibitory compound/PTPase activity in the absence of the compound)× 100%. […]

T2 sequence (O75365 whole entry): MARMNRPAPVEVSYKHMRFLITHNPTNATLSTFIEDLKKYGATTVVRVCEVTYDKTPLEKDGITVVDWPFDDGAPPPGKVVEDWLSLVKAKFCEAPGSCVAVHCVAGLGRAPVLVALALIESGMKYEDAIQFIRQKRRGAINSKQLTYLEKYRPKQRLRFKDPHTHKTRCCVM
T1 sequence (O75365 whole entry): as above

## O.O.O.O.O.O.O.O.O.O=C([O-])[C@@H]1[O][Sb]2([O-])([O][Sb]34([OH])[O][C@H]([C@H](O)CO)[C@H]([O]3)[C@H](C(=O)[O-])[O]4)[O][C@H]([C@H](O)CO)[C@@H]1[O]2.[Na+].[Na+].[Na+] [sodium stibogluconate]
HEY cells
  killing of HEY cells: near-complete cell killing
SK-N-SH cells
  killing of SK-N-SH cells: near-complete cell killing
Intracellular Flag-PRL-3
  PTPase activity of Flag-PRL-3 immunocomplexes from treated cells: lack of PTPase activity
PRL-3
  inactivation of PRL-3: nearly complete inactivation
